We go through one compound from patent publication US9084785B2, “Composition for accelerating change in muscle type” (AMOREPACIFIC CORPORATION, priority 2010, dated 2015).

Test [1] relates to C57BL/6 mice. The test can be described thus: Blood analysis (blood sugar, serum triglyceride and cholesterol). To be noted: 200 mg/kg oral once a day, 8 weeks. The format is in vivo, mouse. On the procedure: 5-week-old male C57BL/6 mice were grouped with 10 mice per group. They were orally administered with Gynostemma pentaphyllum leaf extract, Artemisia princeps extract, astragali radix extract or EPA alone, a mixture of Artemisia princeps extract, Gynostemma pentaphyllum leaf extract and astragali radix extract or a mixture of EPA, Gynostemma pentaphyllum leaf extract and astragali radix extract (200 mg/kg) as test substances for 8 weeks, once a day. Then, blood analysis was performed to evaluate blood sugar level and serum triglyceride and cholesterol levels. The blood sugar level was measured using the Accu-Check Active kit (Roche Diagnostics, Seoul, Korea). The blood sample was centrifuged at 3000 rpm for 10 minutes to separate serum. Triglyceride and cholesterol levels in the separated serum were analyzed using the […] analyzer (Vital Scientific, […], The Netherlands).

Test [2] has as its system C57BL/6 mice. Kind of test: Change in muscle type (slow-twitch myosin staining of plantaris muscle). In kind it is in vivo, mouse. To be noted: 200 mg/kg oral once a day, 8 weeks. Here is the method: 5-week-old male C57BL/6 mice were grouped with 10 mice per group to evaluate change in muscle type after administration of test substances. The experimental mice were orally administered with Gynostemma pentaphyllum leaf extract, Artemisia princeps extract, astragali radix extract or EPA alone, a mixture of Artemisia princeps extract, Gynostemma pentaphyllum leaf extract and astragali radix extract or a mixture of EPA, Gynostemma pentaphyllum leaf extract and astragali radix extract (200 mg/kg) as test substances for 8 weeks, once a day. The mice were fasted for 12 hours before autopsy. Plantaris muscle was taken from the mice of each test group and frozen in liquid nitrogen. The frozen tissue was sliced to 10-μm thickness using a cryotome, fixed in acetone for 10 minutes, and washed 3 times with PBS. After blocking for 2 hours with PBS containing 10% FBS, the tissue sections were treated with anti-slow-twitch myosin antibody (Abcam, Cambridge, UK) as primary antibody and with fluorescein isothiocyanate (FITC)-conjugated anti-mouse IgG antibody (Molecular Probes) as secondary antibody. After mounting with antifade solution, the sections were examined by confocal microscopy.

On to `CC/C=C\C/C=C\C/C=C\C/C=C\C/C=C\CCCC(=O)O` [EPA, eicosapentaenoic acid], for which, in test [1], the Blood sugar was found to be 181.2 ± 10.9 mg/dL. In addition, in test [1] (serum), the Cholesterol was determined as 164.9 ± 12.1 mg/dL and the Triglyceride amounted to 101.23 ± 11.3 mg/dL. In test [2], the “Fast-twitch muscle (%)” value is 70.6 ± 3.6% and the “Slow-twitch muscle (%)” value is on record as 29.4 ± 4.2%.
